Data on five molecules can be found in ChEMBL document CHEMBL2150960 (ACS Med Chem Lett, 2010).

Data set [1] can be described thus: Half life in rhesus monkey at 10 mg/kg. It counts as ADME, organism-based, Macaca mulatta. Details: dose 10 mg/kg; call rule not given here. The note with it: in vivo.
Data set [2] is described as follows: Systemic clearance in rhesus monkey at 10 mg/kg. It is filed as ADME, organism-based, Macaca mulatta. The note with it: in vivo. Details: dose 10 mg/kg.
A short description of data set [3]: Apparent terminal half life in human at 20 mg, po. The note with it: in vivo, read-out: betat1/2(app) (converted). It is filed as ADME, organism-based.
Data set [4] can be described thus: Cmax in human at 20 mg, po. It is filed as ADME, organism-based. Details: dose 20 mg, route oral. As to conditions: in vivo.
Data set [5] has as its system P-gp. The data set can be described thus: Permeability across pig LLC-PK1 cells expressing P-gp. It is filed as ADME, cell-based, Sus scrofa.
Data set [6] relates to LLC-PK1. The data set can be described thus: Ratio of permeability from basolateral to apical side to apical to basolateral side of pig LLC-PK1 cells expressing P-gp. It counts as ADME, cell-based, Sus scrofa.
In data set [7] the target is Voltage-gated inwardly rectifying potassium channel KCNH2 (Homo sapiens, UniProt Q12809). The data set can be described thus: Displacement of […] from human ERG in HEK293 cells. It is filed as cell-based.
The nature of data set [8]: Antagonist activity at L-type calcium channel by FLIPR assay. It is filed as functional.
Data set [9] can be described thus: Binding affinity to T-type calcium channel.
The nature of data set [10]: Antagonist activity at hyperpolarized T-type calcium channel by FLIPR assay. It counts as functional.
A short description of data set [11]: Antagonist activity at depolarized T-type calcium channel by FLIPR assay. It is filed as functional.
The nature of data set [12]: Plasma protein binding in rat assessed as fraction unbound at 5 uM. It is filed as ADME, cell-free.
A short description of data set [13]: Bioavailability in rat at 10 mg/kg. It counts as ADME, organism-based. As to conditions: in vivo.
The nature of data set [14]: Volume of distribution at steady state in rat at 10 mg/kg. It counts as ADME, organism-based. Details: dose 10 mg/kg. The note with it: in vivo, read-out: Vdss.
A short description of data set [15]: Half life in rat at 10 mg/kg. It counts as ADME, organism-based. Details: dose 10 mg/kg. As to conditions: in vivo.
Data set [16] can be described thus: Systemic clearance in rat at 10 mg/kg. It counts as ADME, organism-based. Details: dose 10 mg/kg. As to conditions: in vivo.
Data set [17] can be described thus: Plasma protein binding in dog assessed as fraction unbound at 5 uM. It is filed as ADME, cell-free, Canis lupus familiaris.
The nature of data set [18]: Bioavailability in dog at 10 mg/kg. It is filed as ADME, organism-based, Canis lupus familiaris. The note with it: in vivo.
Data set [19] can be described thus: Volume of distribution at steady state in dog at 10 mg/kg. It counts as ADME, organism-based, Canis lupus familiaris. Details: dose 10 mg/kg. As to conditions: in vivo, read-out: Vdss.
Data set [20] can be described thus: Half life in dog at 10 mg/kg. Details: dose 10 mg/kg. The note with it: in vivo. It counts as ADME, organism-based, Canis lupus familiaris.
Data set [21] can be described thus: Systemic clearance in dog at 10 mg/kg. It counts as ADME, organism-based, Canis lupus familiaris. Details: dose 10 mg/kg. As to conditions: in vivo.
A short description of data set [22]: Volume of distribution at steady state in rhesus monkey at 10 mg/kg. It is filed as ADME, organism-based, Macaca mulatta. Details: dose 10 mg/kg. The note with it: in vivo, read-out: Vdss.
The nature of data set [23]: Bioavailability in rhesus monkey at 10 mg/kg. It is filed as ADME, organism-based, Macaca mulatta. The note with it: in vivo.
Data set [24] can be described thus: Plasma protein binding in rhesus monkey assessed as fraction unbound at 5 uM. It counts as ADME, Macaca mulatta.
Data set [25] is described as follows: Plasma protein binding in human assessed as fraction unbound at 5 uM. It is filed as ADME, cell-free.
For data set [26], the system named is Rattus norvegicus. The data set can be described thus: Anticonvulsant activity in WAG/Rij rat assessed as inhibition of seizure at 3 mg/kg, po measured after 4 hrs. It is filed as functional.
Data set [27] concerns the target T1, PXR (NR1I2) (Homo sapiens, UniProt O75469).
T1 sequence (O75469 whole entry): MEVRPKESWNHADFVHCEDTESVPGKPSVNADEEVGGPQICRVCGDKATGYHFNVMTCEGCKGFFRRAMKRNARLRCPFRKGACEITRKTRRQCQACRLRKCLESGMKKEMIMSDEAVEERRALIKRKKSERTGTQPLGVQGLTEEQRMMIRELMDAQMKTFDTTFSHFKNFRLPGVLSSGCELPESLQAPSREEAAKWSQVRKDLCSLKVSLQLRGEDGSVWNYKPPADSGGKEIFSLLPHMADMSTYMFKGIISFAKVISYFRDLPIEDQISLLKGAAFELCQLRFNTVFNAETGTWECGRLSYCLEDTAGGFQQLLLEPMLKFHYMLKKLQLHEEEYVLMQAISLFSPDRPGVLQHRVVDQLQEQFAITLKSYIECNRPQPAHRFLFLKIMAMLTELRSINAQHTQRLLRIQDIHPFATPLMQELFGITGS
The data set can be described thus: Activity at PXR at 10 uM relative to rifampicin. As to conditions: read-out: Activity.

Data set [28] relates to Liver microsomes. Kind of data set: Covalent protein binding in human liver microsomes assessed per mg protein at 10 uM after 60 mins in presence of NADPH by NMR spectroscopy. The note with it: 1 h. It is filed as ADME, Microsome.
Data set [29] is described as follows: Ratio of IC50 for hyperpolarized T-type calcium channel to IC50 for depolarized T-type calcium channel.
Data set [30] concerns the target T2, Voltage-dependent T-type calcium channel subunit alpha-1I (Homo sapiens, UniProt Q9P0X4). The data set can be described thus: Antagonist activity at Cav3.3 at -100 mV holding potential by whole cell patch clamp analysis. It is filed as functional.
The target of data set [31] is T2, Voltage-dependent T-type calcium channel subunit alpha-1I. Kind of data set: Antagonist activity at Cav3.3 at -80 mV holding potential by whole cell patch clamp analysis. It is filed as functional. (In patch-clamp work, channel activity is measured electrically.)
In data set [32] the target is hERG (KCNH2) (Homo sapiens, UniProt Q12809). The data set can be described thus: Inhibition of human ERG at 30 uM.
The target of data set [33] is Voltage-gated potassium channel, IKs; KCNQ1(Kv7.1)/KCNE1(MinK) (Homo sapiens, UniProt P51787+P15382). Kind of data set: Inhibition of IKs. It counts as protein-complex assay.
Data set [34] is described as follows: Inhibition of Sodium channel. The note with it: concentration not given here.
The nature of data set [35]: Inhibition of L-type calcium channel at 30 uM.
Data set [36] has as its system Rattus norvegicus. Kind of data set: Effect on sleep wake cycle in rat assessed as suppression of active wake time at 5 mg/kg, po administered daily 30 mins before inactive phase. It is filed as functional.
In data set [37] the test system is Rattus norvegicus. Kind of data set: Effect on sleep wake cycle in po dosed rat assessed as increase in delta sleep administered daily 30 mins before inactive phase measured 0.5 to 2 hrs post administration. It is filed as functional, organism-based.
The nature of data set [38]: Half life in rat at 5 mg/kg, po. It counts as ADME, organism-based. Details: dose 5 mg/kg, route oral. As to conditions: in vivo.
Data set [39] concerns Liver microsomes. Kind of data set: Covalent protein binding in human liver microsomes assessed as GSH adduct formation measured per mg protein at 10 uM after 60 mins in presence of NADPH by NMR spectroscopy. It counts as ADME, Microsome. As to conditions: 1 h. A general note: Liver microsomes are vesicles of endoplasmic reticulum, rich in cytochrome P450 enzymes.

SMILES strings stand for the structures. Bounds are passed on as bounds.

Sequence of Voltage-gated inwardly rectifying potassium channel KCNH2 (Q12809 whole entry): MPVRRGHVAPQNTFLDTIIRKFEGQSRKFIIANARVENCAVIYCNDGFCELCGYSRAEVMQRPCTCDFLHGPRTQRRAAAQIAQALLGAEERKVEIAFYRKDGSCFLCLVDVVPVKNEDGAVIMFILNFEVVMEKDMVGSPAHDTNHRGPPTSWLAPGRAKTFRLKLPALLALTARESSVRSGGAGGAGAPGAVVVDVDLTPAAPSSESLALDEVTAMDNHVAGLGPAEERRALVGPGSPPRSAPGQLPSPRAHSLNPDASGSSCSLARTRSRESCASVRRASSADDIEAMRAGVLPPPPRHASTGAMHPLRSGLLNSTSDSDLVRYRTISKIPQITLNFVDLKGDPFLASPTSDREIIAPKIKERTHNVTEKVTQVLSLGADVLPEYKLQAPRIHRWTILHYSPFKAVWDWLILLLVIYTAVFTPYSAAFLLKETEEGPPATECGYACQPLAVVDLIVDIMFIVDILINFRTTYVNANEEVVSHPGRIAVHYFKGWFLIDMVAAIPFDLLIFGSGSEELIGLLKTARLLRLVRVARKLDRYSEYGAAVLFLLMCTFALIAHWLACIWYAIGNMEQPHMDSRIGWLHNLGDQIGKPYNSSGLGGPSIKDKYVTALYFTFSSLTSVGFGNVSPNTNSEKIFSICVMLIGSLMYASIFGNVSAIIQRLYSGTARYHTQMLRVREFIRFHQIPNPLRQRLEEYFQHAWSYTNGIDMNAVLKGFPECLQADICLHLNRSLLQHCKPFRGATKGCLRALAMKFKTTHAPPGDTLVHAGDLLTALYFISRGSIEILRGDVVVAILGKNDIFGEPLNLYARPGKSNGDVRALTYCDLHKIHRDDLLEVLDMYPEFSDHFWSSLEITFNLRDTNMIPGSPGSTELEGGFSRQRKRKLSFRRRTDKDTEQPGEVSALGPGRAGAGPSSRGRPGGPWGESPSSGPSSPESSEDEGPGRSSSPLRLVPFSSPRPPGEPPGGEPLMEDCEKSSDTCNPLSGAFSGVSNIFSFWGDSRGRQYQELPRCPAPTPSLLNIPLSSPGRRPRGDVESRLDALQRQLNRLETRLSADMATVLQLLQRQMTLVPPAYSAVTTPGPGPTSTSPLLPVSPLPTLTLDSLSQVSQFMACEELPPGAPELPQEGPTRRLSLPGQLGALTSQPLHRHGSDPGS
T2 sequence (Q9P0X4 whole entry): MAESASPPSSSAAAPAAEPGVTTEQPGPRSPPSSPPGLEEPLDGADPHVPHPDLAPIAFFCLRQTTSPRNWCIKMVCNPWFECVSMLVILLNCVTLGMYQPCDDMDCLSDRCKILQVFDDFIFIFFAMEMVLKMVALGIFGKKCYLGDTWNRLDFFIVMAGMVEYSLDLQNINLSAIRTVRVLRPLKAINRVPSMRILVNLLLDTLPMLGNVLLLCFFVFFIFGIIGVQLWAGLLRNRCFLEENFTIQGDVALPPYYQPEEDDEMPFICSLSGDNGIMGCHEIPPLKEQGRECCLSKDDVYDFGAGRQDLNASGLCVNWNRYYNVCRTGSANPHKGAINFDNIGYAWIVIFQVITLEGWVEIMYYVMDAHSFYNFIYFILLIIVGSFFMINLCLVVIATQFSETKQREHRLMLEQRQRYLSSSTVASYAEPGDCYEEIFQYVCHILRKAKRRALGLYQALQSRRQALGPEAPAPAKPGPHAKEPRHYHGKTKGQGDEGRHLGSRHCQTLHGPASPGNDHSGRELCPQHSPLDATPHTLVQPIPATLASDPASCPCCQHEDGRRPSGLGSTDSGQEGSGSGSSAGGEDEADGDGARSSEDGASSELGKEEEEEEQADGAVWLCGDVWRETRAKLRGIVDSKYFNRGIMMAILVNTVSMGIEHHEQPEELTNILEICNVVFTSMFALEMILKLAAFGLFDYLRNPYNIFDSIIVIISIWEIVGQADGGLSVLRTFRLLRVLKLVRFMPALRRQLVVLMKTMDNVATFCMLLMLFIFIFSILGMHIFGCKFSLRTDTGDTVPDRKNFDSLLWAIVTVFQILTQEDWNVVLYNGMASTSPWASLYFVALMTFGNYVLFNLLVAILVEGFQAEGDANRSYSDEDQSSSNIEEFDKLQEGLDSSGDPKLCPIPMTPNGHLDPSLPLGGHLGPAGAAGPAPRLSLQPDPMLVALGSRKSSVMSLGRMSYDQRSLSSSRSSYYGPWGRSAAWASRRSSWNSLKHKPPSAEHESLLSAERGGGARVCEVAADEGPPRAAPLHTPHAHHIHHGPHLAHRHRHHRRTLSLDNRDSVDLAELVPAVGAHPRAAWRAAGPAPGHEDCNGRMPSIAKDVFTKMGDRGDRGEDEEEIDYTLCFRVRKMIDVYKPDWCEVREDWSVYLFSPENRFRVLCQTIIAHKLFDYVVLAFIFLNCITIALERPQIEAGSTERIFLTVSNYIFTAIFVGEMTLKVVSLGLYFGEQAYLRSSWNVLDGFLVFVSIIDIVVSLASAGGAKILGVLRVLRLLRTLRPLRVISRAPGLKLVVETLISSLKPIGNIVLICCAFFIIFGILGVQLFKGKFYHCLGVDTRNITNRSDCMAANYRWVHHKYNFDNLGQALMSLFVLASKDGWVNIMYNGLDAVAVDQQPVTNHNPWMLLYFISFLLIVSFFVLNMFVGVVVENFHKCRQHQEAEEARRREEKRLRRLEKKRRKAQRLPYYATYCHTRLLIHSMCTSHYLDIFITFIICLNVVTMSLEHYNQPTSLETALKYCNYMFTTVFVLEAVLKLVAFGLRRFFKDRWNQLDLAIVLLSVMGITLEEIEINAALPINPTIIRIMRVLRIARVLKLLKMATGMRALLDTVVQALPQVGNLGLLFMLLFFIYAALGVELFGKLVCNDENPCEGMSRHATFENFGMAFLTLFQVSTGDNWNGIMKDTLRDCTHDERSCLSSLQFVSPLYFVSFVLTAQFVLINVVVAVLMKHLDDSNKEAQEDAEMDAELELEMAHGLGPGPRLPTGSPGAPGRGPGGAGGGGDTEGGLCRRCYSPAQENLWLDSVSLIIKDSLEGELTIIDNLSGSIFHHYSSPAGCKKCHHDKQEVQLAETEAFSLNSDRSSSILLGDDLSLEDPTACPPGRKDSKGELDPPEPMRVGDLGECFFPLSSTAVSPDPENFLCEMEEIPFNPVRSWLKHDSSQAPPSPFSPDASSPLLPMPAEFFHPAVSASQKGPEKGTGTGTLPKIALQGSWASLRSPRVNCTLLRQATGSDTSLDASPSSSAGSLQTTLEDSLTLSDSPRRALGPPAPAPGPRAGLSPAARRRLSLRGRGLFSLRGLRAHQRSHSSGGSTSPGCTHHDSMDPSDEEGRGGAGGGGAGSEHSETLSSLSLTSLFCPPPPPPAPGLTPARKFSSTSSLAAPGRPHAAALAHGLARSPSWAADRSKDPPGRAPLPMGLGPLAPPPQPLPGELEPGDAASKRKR
Sequence of hERG (KCNH2) (Q12809 whole entry): as the sequence (Q12809 whole entry) above

The clearance is a measure of how efficiently the substance is removed, as volume per time. The Cmax is the peak of the concentration-time curve. For orientation: Papp means the rate of passage across a membrane or cell layer, normalised by area and donor concentration. As usually defined, the IC50 is the concentration that gives 50% inhibition. The Ki is a measure of affinity in units of concentration, obtained from inhibition or displacement. By fraction unbound is commonly meant the share of the substance not bound to proteins or other matrix. Broadly, the bioavailability is the share of a dose that reaches the circulation, judged against a reference dose that is usually intravenous. In general, inhibition in vivo refers to how much of the control response was suppressed. The term inhibition denotes the change of the read-out against control, counted positive when it falls. As to `Cc1nccnc1-c1ccc(CC(=O)N[C@H](C)c2ccc(OCC(F)(F)F)cn2)cc1`, the half-life in data set [1] is 31.8 min; in [3] it was 180 min; in data set [15], 14.4 min; in data set [20], 48.6 min; in data set [38], 14 min. Also, the clearance in data set [2] is 1.16 L/h/kg; in data set [16], 1.82 L/h/kg; in data set [21], 0.708 L/h/kg. In data set [4], this molecule displayed a peak concentration (Cmax) of 1.82 µM. Further, the Papp in data set [5] is 440 nm/s. Besides, the Ratio in data set [6] is listed as 1.3. The IC50 was more than 30 µM in [7]; more than 10 µM in [8]; 1.92 µM in data set [10]; 0.0313 µM in data set [11]; 12 µM in [30]; 0.264 µM in [31]. The Ki in data set [9] worked out at 0.0055 µM. For the same molecule, the fraction unbound at 5 µM in data set [12] was 0.123; in data set [17], 0.155; in data set [24], 0.146; in [25] it was 0.032. Moreover, the bioavailability stood at 71% in [13], 23% in data set [18] and 5% in [23]. The results for the Vd in [14], in data set [19] and in data set [22] were 0.59 L/kg, 0.36 L/kg and 0.74 L/kg, respectively. Also, in data set [26], the inhibition in vivo at 3 mg/kg was determined as 87%. In addition, the activity at 10 µM in data set [27] came out at 8%. The PB in data set [28] is on record as 8 pmol. Also, the Ratio IC50 in [29] is more than 80. In data set [32], this molecule showed an inhibition at 30 µM of 41%. The “inhibition (INH)” value in data set [33] is “Not Active”. Besides, the inhibition in data set [34] came out at 20%; in [35] it was 12%. Further, the Time in data set [36] was 1.5 h. In addition, the Activity result in [37] is “Dose-dependent effect”.

For `C[C@@H](NC(=O)Cc1ccc(C2CC2)cc1)c1ccc(OCC(F)(F)F)cn1`, the Papp in [5] was determined as 450 nm/s. Also, the Ratio in data set [6] stood at 0.7. The IC50 is more than 10 µM in [7], more than 10 µM in [8], 0.384 µM in data set [10] and 0.0094 µM in [11]. Besides, in [9], the inhibition constant Ki came to 0.0012 µM. The inhibition in vivo at 3 mg/kg in data set [26] came to 87%. The activity at 10 µM in [27] was 17%. In data set [29], the Ratio IC50 was more than 80.

In the case of `Cc1ncoc1-c1ccc(CC(=O)N[C@H](C)c2ccc(OCC(F)(F)F)cn2)cc1`, the Papp in [5] amounted to 350 nm/s. The Ratio in [6] amounted to 1.1. Also, the IC50 in [7] was more than 30 µM; in data set [8], more than 10 µM; in [10], 0.206 µM; in data set [11], 0.0053 µM. The Ki in data set [9] came to 0.0002 µM. Further, the unbound share (fraction unbound) at 5 µM in data set [12] was found to be 0.052; in data set [17], 0.016. Further, the bioavailability in data set [13] amounted to 100%; in data set [18], 50%. Besides, the values for the Vd in data set [14] and in data set [19] were 1.1 L/kg and 0.3 L/kg, respectively. Besides, the half-life in [15] was 24 min; in data set [20], 66 min. Also, the clearance in data set [16] came out at 2.1 L/h/kg; in data set [21], 0.216 L/h/kg. For the same molecule, the inhibition in vivo at 3 mg/kg in [26] came to 72%. Besides, the activity at 10 µM in data set [27] amounted to 7%. For the same molecule, the PB in data set [39] amounted to 1558 pmol. In addition, in [29], the Ratio IC50 is more than 80.

As for `C[C@@H](NC(=O)Cc1ccc(N2CC[C@H](F)C2)cc1)c1ccc(OCC(F)(F)F)cn1`, the Papp in [5] was determined as 410 nm/s. Moreover, the half-inhibitory concentration (IC50) in [8] is more than 10 µM; in data set [10], 0.249 µM; in data set [11], 0.0037 µM. Also, the Ki in data set [9] was 0.0003 µM. In addition, in [27], the activity at 10 µM is 31%.

For `C[C@@H](NC(=O)Cc1ccc(-c2cnn3ncccc23)cc1)c1ccc(OCC(F)(F)F)cn1`, in [5], the apparent permeability coefficient (Papp) came to 380 nm/s. For the same molecule, the Ratio in data set [6] worked out at 1.3. The IC50 is more than 30 µM in data set [7], more than 10 µM in [8], 0.397 µM in data set [10] and 0.0054 µM in [11]. The inhibition in vivo at 3 mg/kg in [26] amounted to 85%. The activity at 10 µM in [27] was determined as 0%. Moreover, the PB in data set [39] was determined as 244 pmol. In addition, the Ratio IC50 in data set [29] was more than 80.
